In patent publication US20200385371A1 (Propellon Therapeutics Inc., priority 2017, published 2020) one finds Kd, IC50 and EC50 data, which are given here for 15 compounds.

Read-outs that look alike come from different tables or passages of the source.

In general, Kd refers to the equilibrium constant for the complex coming apart. As a reminder, the IC50 is the concentration needed to halve the response being measured. In general, EC50 refers to the concentration at which the effect is half-maximal.

Assay [1] deals with T1, WDR5 (Homo sapiens, UniProt P61964). Put plainly: Surface Plasmon Resonance (SPR) assay. Also on record: Full length WDR5 with an N-terminal His tag and C-terminal AviTag; His tag (N); made in house; host or cells: E. coli. The format is binding. The gist of the method:
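Full-length biotinylated WDR5 (N-His, C-AviTag, E. coli) captured (~3000 RU) on streptavidin SA chip; Biacore T200. HBS-EP pH 7.4 plus 5% DMSO running buffer, 40 μl/min.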

In another assay the target is T2, MLL1-WRAD2 complex (Homo sapiens, UniProt P61964).
T2 construct: His tag (N); made in house; host or cells: E. coli
Put plainly: MLL1-WRAD2 enzyme assay (HMT). Format: biochemical. The procedure: Specifically, recombinant human MLL1 (aa 3745-3969, GenBank Accession No. NM_005933), WDR5 (aa 22-334, GenBank Accession No. NM_017588), RbBP5 (aa 1-538, GenBank Accession No. NM_005057), Ash2L (aa 2-534, GenBank Accession No. NM_001105214), and DPY-30 (aa 1-99, GenBank Accession No. NM_0325742), all with N-terminal His tag, are expressed in E. coli and mixed at a molar ratio of 1:1:1:1:2. 10 nM of the assembled MLL1-WRAD2 complex is mixed with 100 nM WRAD2 to enhance complex formation before incubation with 0.05 mg/ml nucleosome substrate and compounds (as 10 point duplicate dose response titrations) for 15 min in a buffer consisting of 50 mM Tris (pH 8.5), 5 mM MgCl2, 50 mM NaCl, 1 mM DTT, 0.01% Brij-35, and 1% DMSO. Reaction is initiated with 1 μM 3H-SAM and incubated for 1 hour at 30° C. Reaction mixture is transferred to P81 filter-paper and washed with PBS before detection.

The subject of another assay is MV4-11 cells. The assay is described as follows: Cell proliferation assay (ATPlite). The format is cell-based. To be noted: Homo sapiens; for IC50: MV4-11, Table 2; for EC50: 120 h, MV4-11 cells, five days, read-out: GI MV411 EC50. Put shortly: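 Cells seeded at 1,000/well in Alpha-MEM with 10% FBS, treated with compound over a 10-point range (top 10 μM) or DMSO. Grown five days at 37° C, 5% CO2; viability by ATPlite luminescence.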
For orientation: ATP-based viability assays read luminescence as a measure of living cells.

In assay [2] the target is T1, WDR5. Put plainly: Fluorescence Polarization (FP) binding assay. Put shortly: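 Displacement of fluorescein-labelled H3 (1-15) (30 nM, with 0.3 μM WDR5) or 9-Ala-FAM (20 nM, with 0.05 μM WDR5) in 80 mM sodium phosphate pH 6.5, 20 mM KCl, 0.008% Triton X-100. FP read at 485/528 nm (H3) or 480/540 nm (9-Ala-FAM); Kdisp from hyperbolic fit, mean of quadruplicates.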
(Polarisation of emitted light reports the rotation of a fluorescent probe.)

Where [3] appears, read: Table 2, effect of difluoro substitution, read-out: KD (SPR).

With `C[C@@H]1CN(c2ccc(-c3cnc(N4CCOCC4)nc3)c(F)c2NC(=O)c2c[nH]c(=O)cc2C(F)(F)F)C[C@H](C)N1C` [reference compound], the equilibrium dissociation constant (Kd) on WDR5 [1] (setting [3]) amounted to 1.1 nM. Further, the concentration for half-maximal inhibition (IC50) at MLL1-WRAD2 complex (Table 2) came to 154 nM.
Regarding `C[C@@H]1CN(c2cc(F)c(-c3cnc(N4CCOCC4)nc3)c(F)c2NC(=O)c2c[nH]c(=O)cc2C(F)(F)F)C[C@H](C)N1C` [drawing 479, reference compound], the IC50 was determined as 30 nM in the assay with MV4-11 cells and 63 nM on MLL1-WRAD2 complex (Table 2). Moreover, the Kd at WDR5 [1] (setting [3]) is 3.7 nM.
For `C[C@@H]1CN(c2ncc(-c3c(F)cc(N4C[C@@H](C)N(C)[C@@H](C)C4)c(NC(=O)c4c[nH]c(=O)cc4C(F)(F)F)c3F)cn2)C[C@H](C)O1` [drawing 478, reference compound] the same measures were 31 nM, 41 nM and 1.8 nM.
Take `C[C@H]1CN(c2cc(F)c(C3=CCCN(c4ncc(C#N)s4)C3)c(F)c2NC(=O)c2c[nH]c(=O)cc2C(F)F)CCN1C` [Example 99, (S)—N-(3-(1-(5-cyanothiazol-2-yl)-1,2,5,6-tetrahydropyridin-3-yl)-6-(3,4-dimethylpiperazin-1-yl)-2,4-difluorophenyl)-4-(difluoromethyl)-6-oxo-1,6-dihydropyridine-3-carboxamide]: the IC50 on WDR5 [2] came out at 14.7 nM. Also, the EC50 in the assay with MV4-11 cells worked out at 169 nM. On WDR5 [1] (read-out: SPR Kd), the Kd came to 1.62 nM.
For `C[C@@H]1CN(c2cc(F)c(-c3cnc(N4CCOCC4)c(C#N)c3)c(F)c2NC(=O)c2c[nH]c(=O)cc2C(F)(F)F)C[C@H](C)N1C` [Example 64, N-(3-(5-cyano-6-morpholinopyridin-3-yl)-2,4-difluoro-6-((3S,5R)-3,4,5-trimethylpiperazin-1-yl)phenyl)-6-oxo-4-(trifluoromethyl)-1,6-dihydropyridine-3-carboxamide] the same measures were 14.9 nM, 32.7 nM and 2.48 nM.
Turning to `CC(C)OC(=O)N1CC=C(c2c(F)cc(N3CCN(C)[C@@H](C)C3)c(NC(=O)c3c[nH]c(=O)cc3C(F)(F)F)c2F)C1` [Example 37, Isopropyl (S)-3-(4-(3,4-dimethylpiperazin-1-yl)-2,6-difluoro-3-(6-oxo-4-(trifluoromethyl)-1,6-dihydropyridine-3-carboxamido)phenyl)-2,5-dihydro-1H-pyrrole-1-carboxylate], the IC50 on WDR5 [2] turned out to be 16.2 nM. The concentration giving a half-maximal response (EC50) in the assay on MV4-11 cells turned out to be 108 nM. Moreover, on WDR5 [1] (read-out: SPR Kd), the dissociation constant Kd came to 2.24 nM.
Turning to `COc1cnc(N2CC=C(c3c(F)cc(N4C[C@@H](C)N(C)[C@@H](C)C4)c(NC(=O)c4c[nH]c(=O)cc4C(F)(F)F)c3F)C2)nc1` [Example 139, N-(2,4-difluoro-3-(1-(5-methoxypyrimidin-2-yl)-2,5-dihydro-1H-pyrrol-3-yl)-6-((3S,5R)-3,4,5-trimethylpiperazin-1-yl)phenyl)-6-oxo-4-(trifluoromethyl)-1,6-dihydropyridine-3-carboxamide], at WDR5 [2], the IC50 worked out at 12 nM. Moreover, the EC50 in the assay with MV4-11 cells amounted to 18.5 nM. At WDR5 [1] (read-out: SPR Kd), the Kd stood at 1.65 nM.
For `C[C@@H]1CN(c2ncc(-c3c(F)cc(N4C[C@@H](C)N(C)[C@@H](C)C4)c(NC(=O)c4c[nH]c(=O)cc4C(F)F)c3F)cn2)C[C@H](C)O1` [Example 111, 4-(Difluoromethyl)-N-(3-(2-((2S,6R)-2,6-dimethylmorpholino)pyrimidin-5-yl)-2,4-difluoro-6-((3S,5R)-3,4,5-trimethylpiperazin-1-yl)phenyl)-6-oxo-1,6-dihydropyridine-3-carboxamide] the same measures were 14.1 nM, 9.48 nM and 1.29 nM.
As to `C[C@@H]1CN(c2ncc(-c3cc(NC(=O)c4c[nH]c(=O)cc4C(F)(F)F)c(N4C[C@@H](C)N(C)[C@@H](C)C4)cc3F)cn2)C[C@H](C)O1` [reference compound], at WDR5 [1] (setting [3]), the Kd was determined as 0.4 nM. Besides, 150 nM corresponded to half-maximal inhibition against MLL1-WRAD2 complex (Table 2, no unit printed in the cell) (IC50).
As for `C[C@H]1CN(c2cc(F)c(-c3cnc(N4CC5CCC(C4)O5)nc3)c(F)c2NC(=O)c2c[nH]c(=O)cc2C(F)F)CCN1C` [Example 155, (S)—N-(3-(2-(8-oxa-3-azabicyclo[3.2.1]octan-3-yl)pyrimidin-5-yl)-6-(3,4-dimethylpiperazin-1-yl)-2,4-difluorophenyl)-4-(difluoromethyl)-6-oxo-1,6-dihydropyridine-3-carboxamide-], at WDR5 [2], the IC50 was found to be 11.2 nM. In addition, the EC50 in the assay on MV4-11 cells came out at 74 nM. On WDR5 [1] (read-out: SPR Kd), the Kd amounted to 1.21 nM.
`C[C@@H]1CN(c2ncc(-c3c(F)cc(N4CCN(C)[C@@H](C)C4)c(NC(=O)c4cn(C)c(=O)cc4C(F)(F)F)c3F)cn2)C[C@H](C)O1` [Example 164, N-(3-(2-((2S,6R)-2,6-dimethylmorpholino)pyrimidin-5-yl)-6-((S)-3,4-dimethylpiperazin-1-yl)-2,4-difluorophenyl)-1-methyl-6-oxo-4-(trifluoromethyl)-1,6-dihydropyridine-3-carboxamide]: at WDR5 [2], the IC50 is 13.3 nM. For the same compound, in the assay with MV4-11 cells, the concentration for a half-maximal effect (EC50) was found to be 71.9 nM. Also, the Kd on WDR5 [1] (read-out: SPR Kd) was 1.16 nM.
For `C[C@@H]1CN(c2cc(F)c(-c3cnc(N(C)C)nc3)c(F)c2NC(=O)c2c[nH]c(=O)cc2C(F)(F)F)C[C@H](C)N1C` [Example 70, N-(3-(2-(dimethylamino)pyrimidin-5-yl)-2,4-difluoro-6-((3S,5R)-3,4,5-trimethylpiperazin-1-yl)phenyl)-6-oxo-4-(trifluoromethyl)-1,6-dihydropyridine-3-carboxamide] the same measures were 16.5 nM, 26.7 nM and 0.91 nM.
With `C[C@@H]1CN(c2cc(F)c(-c3cnc(N4CCC(F)(F)CC4)nc3)c(F)c2NC(=O)c2c[nH]c(=O)cc2C(F)(F)F)C[C@H](C)N1C` [Example 61, N-(3-(2-(4,4-difluoropiperidin-1-yl)pyrimidin-5-yl)-2,4-difluoro-6-((3S,5R)-3,4,5-trimethylpiperazin-1-yl)phenyl)-6-oxo-4-(trifluoromethyl)-1,6-dihydropyridine-3-carboxamide], at WDR5 [2], the IC50 was determined as 11.7 nM. Moreover, the EC50 in the assay on MV4-11 cells turned out to be 22.9 nM. For the same compound, the Kd at WDR5 [1] (read-out: SPR Kd) worked out at 1.26 nM.
For `C[C@@H]1CN(c2cc(F)c(-c3ccnc(N4CCOCC4)c3)c(F)c2NC(=O)c2c[nH]c(=O)cc2C(F)(F)F)C[C@H](C)N1C` [Example 69, N-(2,4-difluoro-3-(2-morpholinopyridin-4-yl)-6-((3S,5R)-3,4,5-trimethylpiperazin-1-yl)phenyl)-6-oxo-4-(trifluoromethyl)-1,6-dihydropyridine-3-carboxamide] the same measures were 23.2 nM, 417 nM and 3.01 nM.
With `COc1cnc(N2CCC=C(c3c(F)cc(N4CCN(C)[C@@H](C)C4)c(NC(=O)c4c[nH]c(=O)cc4C(F)F)c3F)C2)nc1` [Example 49, (S)-4-(difluoromethyl)-N-(6-(3,4-dimethylpiperazin-1-yl)-2,4-difluoro-3-(1-(5-methoxypyrimidin-2-yl)-1,2,5,6-tetrahydropyridin-3-yl)phenyl)-6-oxo-1,6-dihydropyridine-3-carboxamide], the IC50 on WDR5 [2] was determined as 21.7 nM. The EC50 in the assay on MV4-11 cells worked out at 332 nM. For the same compound, the Kd at WDR5 [1] (read-out: SPR Kd) came to 2.68 nM.
